Data set [1] has as its system Trypanosoma cruzi amastigotes (Tulahuen C2C4 strain). The data set can be described thus: Trypanosoma cruzi assay in infected L-6 cells. Conditions: L6, 96 h incubation, read-out: IC50 T. cruzi. It is filed as cell-based. On the procedure: (§1) (c) Antiprotozoal screening. Compounds were evaluated for their activities against both Trypanosoma cruzi amastigotes and Leishmania donovani amastigotes (free or encapsulated in macrophages), according to the following protocols:
(i) Trypanosoma cruzi assay. L-6 cells (2×10^3) in medium (100 μL of RPMI 1640 supplemented with 2 mM L-glutamine plus 10% heat inactivated fetal calf serum) were seeded in 96-well microtitre plates (Costar™) and incubated at 37° C. (5% CO2) for 1d. A suspension (50 μL) of Trypanosoma cruzi trypomastigotes (5×10^3 of Tulahuen C2C4 strain, containing the β-galactosidase gene) was added, and the cells were incubated at 37° C. (5% CO2) for a further 48 h to establish the infection. The medium was removed and replaced by fresh medium and the infected cells were then incubated at 37° C. (5% CO2) for 96 h in either medium alone or in the presence of serial (3-fold) dilutions of test compounds (initially prepared as 10 mg/mL stock solutions in DMSO and diluted into medium). Benznidazole was employed as a standard in each assay. Following incubation, chlorophenol red glycoside (100 mM) in 0.1% Nonidet P40/PBS (50 μL) was added, and (after 6 h) the absorbance at 540 nm was measured and used to calculate the IC50 values.

The subject of data set [2] is L. donovani amastigotes (MHOM-ET-67/L82) in mouse macrophages. Put plainly: Leishmania donovani infected macrophage assay. Type of data set: cell-based. Conditions: 96 h incubation, read-out: IC50 L. donovani macro. On the procedure:
as §1
(iii) Leishmania donovani infected macrophage assay. Freshly harvested mouse macrophages in medium (RPMI 1640 plus 10% heat inactivated fetal calf serum) were incubated at 37° C. (5% CO2) for 24 h and then infected (1:3 macrophages to amastigotes) with an axenic L. donovani amastigote culture (MHOM-ET-67/L82) in medium (SM, pH 5.4 plus 10% heat inactivated fetal calf serum). The infected macrophages were seeded at a density of 1.2×10^6/mL (by diluting in RPMI+10% FCS) in 16-well slides (Lab-tek™) and incubated at 37° C. (5% CO2) for 24 h. The medium was removed and replaced by fresh medium (RPMI 1640+10% FCS), and this was repeated following mixing. The infected macrophages were then incubated at 37° C. (5% CO2) for 96 h in either medium alone or in the presence of serial (3-fold) dilutions of test compounds (initially prepared as 10 mg/mL stock solutions in DMSO and diluted into medium). Miltefosin was employed as a standard in each assay. […], the slides were fixed (5 min in 100% MeOH) and stained (10% Giemsa, 10 min). The ratio of infected to uninfected macrophages was determined by microscopic examination, and the IC50 values were then calculated by linear regression analysis.

Another data set concerns M. tuberculosis Erdman. The data set can be described thus: In vivo mouse acute TB infection assay. The arrangement: species or system BALB/c mice. Conditions: for In vivo efficacy vs PA-824: 100 mg/kg orally daily 5 days a week for 3 weeks, ratio of average lung CFU reduction to that of PA-824.
For the next data set, the system named is VERO cells (CCL-81). Put plainly: Mammalian cell cytotoxicity assay (tetrazolium dye). It is filed as cell-based. Conditions: Chlorocebus sabaeus, 72 h exposure, read-out: IC50 VERO. The procedure:
(b) Mammalian cell cytotoxicity assay. This was assessed against VERO cells (CCL-81, American Type Culture Collection) in a 72 h exposure, using a tetrazolium dye assay (Falzari et al., 2005).

Data set [3] concerns Axenically grown L. donovani amastigotes (MHOM-ET-67/L82). The data set can be described thus: Axenic Leishmania donovani assay. Type of data set: cell-based. Conditions: 70 h incubation, read-out: IC50 L. donovani axen. The procedure:
as §1
(ii) Axenic Leishmania donovani assay. Axenically grown L. donovani amastigotes (MHOM-ET-67/L82) from a healthy culture in log phase were seeded at a density of 1×10^6/mL medium (SM, pH 5.4 plus 10% heat inactivated fetal calf serum) in 96-well microtitre plates (Costar™) and incubated at 37° C. (5% CO2) for 70 h in either medium alone or in the presence of serial (3-fold) dilutions of test compounds (initially prepared as 10 mg/mL stock solutions in DMSO and diluted into medium). Miltefosin was employed as a standard in each assay. After incubation, Resazurin fluorescent dye was added to each well, and incubation was continued for an additional 2 h. The IC50 values were determined from measurements of the fluorescence data.

A short description of data set [4]: Stability to mouse liver microsomes. It is filed as in vitro ADME, CD-1 mouse. Conditions: 1 μM compound, 60 min, 37° C., 0.5 mg/mL protein. The procedure: (§2) (a) Stability of the compounds to human and mouse microsomes. Test compounds (1 μM) were incubated at 37° C. with pooled human or CD-1 mouse liver microsome preparations (0.5 mg/mL final protein concentration) and an NADPH regenerating system (MgCl2, 3.3 mM; G6P, 3.3 mM; G6PD, 0.4 U/mL; NADP+, 1.3 mM) in phosphate buffer (75 mM, pH 7.4), with a final volume of 200 μL. The compounds were dissolved in DMSO such that the final DMSO concentration was 0.5%. Reactions were stopped at 0 and 60 min by the addition of MeCN (100 μL) containing 0.2 μM metoprolol as an internal standard. Samples were diluted 10× and centrifuged prior to analysis by LC-MS/MS using electrospray ionization and SRM monitoring using a gradient LC method. LC peak areas were integrated and expressed as analyte/IS peak area ratios (PAR), and a mean value for each time point was calculated from the duplicates. The percent remaining value was calculated as: % remaining=100×(Mean PART60/Mean PART0).
A general note: Microsomes from liver hold many membrane-bound enzymes, among them those of drug oxidation.

Data set [5] is described as follows: Stability to human liver microsomes. Type of data set: in vitro ADME. Conditions: 1 μM compound, 60 min, 37° C., 0.5 mg/mL protein. The procedure:
as §2

The text below walks through data of patent US8293734B2, “Nitroimidazooxazine and nitroimidazooxazole analogues and their uses” (priority 2009, dated 2012).

Each structure is given as a SMILES string. In brackets after ≈: the same amount, converted by molar mass. Bounds are passed on as bounds.

Regarding `CC1(COCc2ccc(OC(F)(F)F)cc2)Cn2cc([N+](=O)[O-])nc2O1` (stereo not shown) [Compound 25, 2-methyl-6-nitro-2-({[4-(trifluoromethoxy)benzyl]oxy}methyl)-2,3-dihydroimidazo[2,1-b][1,3]oxazole], the melting point (in general, the temperature of the solid-liquid transition) fell in the range of 110 to 111 °C. The IC50 – broadly, the concentration needed to halve the response being measured – in data set [1] is 0.24 µg/mL (≈ 0.643 µM). Moreover, the IC50 in data set [2] is 0.22 µg/mL (≈ 0.589 µM). Also, the “In vivo efficacy vs PA-824” value in the data set with M. tuberculosis Erdman stood at 0.025. The IC50 with VERO cells (CCL-81) was over 128 µM. In addition, the IC50 in data set [3] is 0.029 µg/mL (≈ 0.0777 µM).

With `O=[N+]([O-])c1cn2c(n1)OCC(COCc1ccc(OC(F)(F)F)cc1)C2` (stereo not shown) [Compound 72, 2-nitro-6-({[4-(trifluoromethoxy)benzyl]oxy}methyl)-6,7-dihydro-5H-imidazo[2,1-b][1,3]oxazine], the melting point is 92 to 93 °C. The IC50 in data set [1] was determined as 0.62 µg/mL (≈ 1.66 µM). In addition, the “Microsomes (% remaining) Mouse” value in data set [4] worked out at 41%. Moreover, the half-maximal inhibitory concentration (IC50) in data set [2] was 0.55 µg/mL (≈ 1.47 µM). For the same molecule, the IC50 in the data set on VERO cells (CCL-81) is 46 µM. Besides, the “Microsomes (% remaining) Human” value in data set [5] amounted to 71%. Further, the IC50 in data set [3] was 0.089 µg/mL (≈ 0.238 µM).

In the case of `O=[N+]([O-])c1cn2c(n1)OC[C@@H](OCc1ccc(OC(F)(F)F)cc1)C2` [PA-824, reference compound], in the data set with M. tuberculosis Erdman, the “In vivo efficacy vs PA-824” value came to 1.00. The “log reductions in CFU” value in the data set with M. tuberculosis Erdman (lungs, vs vehicle alone-treated mice, day 31, 'up to') was 2.5-3 log. The “Microsomes (% remaining) Human” value in data set [5] was 82%.
